Assay results reported in ChEMBL document CHEMBL4622868, “Design and synthesis of amphiphilic 2-hydroxybenzylphosphonium salts with antimicrobial and antitumor dual action” (Bioorg Med Chem Lett, 2020).
≈ marks a conversion by molar mass, not a printed value. Calls of active or inactive are those of the source. No cut-off for these calls is given here. Non-standard residues stand in square brackets, D forms with d. Residues, ends and D or L forms follow the SMILES beside them. Orn = NCCC[C@H](N)C(=O)O

Assays:
[1] = test system: Staphylococcus aureus; assay: Bactericidal activity against Staphylococcus aureus ATCC 209p; format: functional
[2] = Hemolytic activity against RBC (unknown origin) at 120 uM; format: ADME, cell-based, Erythrocyte; conditions: red blood cells (erythrocytes); read-out: Activity
[3] = Hemolytic activity against RBC (unknown origin) at 480 uM; format: ADME, cell-based, Erythrocyte; conditions: red blood cells (erythrocytes); read-out: Activity
[4] = test system: Trichophyton mentagrophytes; assay: Fungicidal activity against Trichophyton mentagrophytes; format: functional
[5] = test system: Staphylococcus aureus; assay: Bactericidal activity against clinical isolate amoxicillin resistance Staphylococcus aureus; format: functional
[6] = test system: M-HeLa; assay: Cytotoxicity against human M-HeLa cells; format: functional, cell-based
[7] = test system: Bacillus cereus; assay: Antibacterial activity against Bacillus cereus; format: functional
[8] = test system: PANC-1; assay: Cytotoxicity against human PANC1 cells; format: functional, cell-based
[9] = test system: Staphylococcus aureus; assay: Antibacterial activity against clinical isolate amoxicillin and ciprofloxacin resistance Staphylococcus aureus; format: functional
[10] = Hemolytic activity against RBC (unknown origin) at 1 uM; format: ADME, cell-based, Erythrocyte; conditions: red blood cells (erythrocytes); read-out: Activity
[11] = Hemolytic activity against RBC (unknown origin) at 40 uM; format: ADME, cell-based, Erythrocyte; conditions: red blood cells (erythrocytes); read-out: Activity
[12] = test system: Candida albicans; assay: Antifungal activity against Candida albicans; format: functional
[13] = Hemolytic activity against RBC (unknown origin) at 10 uM; format: ADME, cell-based, Erythrocyte; conditions: red blood cells (erythrocytes); read-out: Activity
[14] = test system: Staphylococcus aureus; assay: Antibacterial activity against clinical isolate amoxicillin resistance Staphylococcus aureus; format: functional
[15] = test system: Staphylococcus aureus; assay: Antibacterial activity against Staphylococcus aureus ATCC 209p; format: functional
[16] = Cytotoxicity against human Chang cells; format: cell-based
[17] = test system: Staphylococcus aureus; assay: Bactericidal activity against clinical isolate amoxicillin and ciprofloxacin resistance Staphylococcus aureus; format: functional
[18] = Hemolytic activity against RBC (unknown origin) at 20 uM; format: ADME, cell-based, Erythrocyte; conditions: red blood cells (erythrocytes); read-out: Activity
[19] = Selectivity index, ratio of IC50 for human Chang cells to IC50 for human PANC1 cells
[20] = test system: Bacillus cereus; assay: Bactericidal activity against Bacillus cereus; format: functional
[21] = test system: Trichophyton mentagrophytes; assay: Antifungal activity against Trichophyton mentagrophytes; format: functional
[22] = test system: HepG2; assay: Cytotoxicity against human HepG2 cells; format: functional, cell-based
[23] = Hemolytic activity against RBC (unknown origin) at 60 uM; format: ADME, cell-based, Erythrocyte; conditions: red blood cells (erythrocytes); read-out: Activity
[24] = Selectivity index, ratio of IC50 for human Chang cells to IC50 for human MCF7 cells
[25] = Selectivity index, ratio of IC50 for human Chang cells to IC50 for human M-HeLa cells
[26] = Hemolytic activity against RBC (unknown origin) at 5 uM; format: ADME, cell-based, Erythrocyte; conditions: red blood cells (erythrocytes); read-out: Activity
[27] = test system: Candida albicans; assay: Fungicidal activity against Candida albicans; format: functional
[28] = Selectivity index, ratio of IC50 for human Chang cells to IC50 for human HepG2 cells
[29] = test system: MCF7; assay: Cytotoxicity against human MCF7 cells; format: functional, cell-based
[30] = Hemolytic activity against RBC (unknown origin) at 240 uM; format: ADME, cell-based, Erythrocyte; conditions: red blood cells (erythrocytes); read-out: Activity

| SMILES | MBC [1] | hemolysis at 120 µM [2] [%] | hemolysis at 480 µM [3] [%] | MFC [4] | MBC [5] | MIC [7] | IC50 [8] [µM] | MIC [9] | hemolysis at 1 µM [10] [%] | hemolysis at 40 µM [11] [%] | MIC [12] | hemolysis at 10 µM [13] [%] | MIC [14] | MIC [15] [µM] | IC50 [16] [µM] | MBC [17] | hemolysis at 20 µM [18] [%] | MBC [20] | MIC [21] | MFC [27] | also measured |
| --- | --- | --- | --- | --- | --- | --- | --- | --- | --- | --- | --- | --- | --- | --- | --- | --- | --- | --- | --- | --- | --- |
| CCCCCCC[P+](Cc1ccccc1O)(c1ccccc1)c1ccccc1.[Cl-] | 18.3 µM | 0.4 | 3.6 | inactive | 73.2 µM | 36.6 µM | 40 | 36.6 µM | 0 | 0.3 | 586 µM | 0.2 | 73.2 µM | 18.3 | 41.6 | 146 µM | 0.3 | 146 µM | 586 µM | inactive | IC50 [6]: 5.5 µM; Ratio IC50 [19]: 1.04; IC50 ([22]; read-out: IC50): 26.3 µM; hemolysis at 60 µM [23]: 0.3%; Ratio IC50 [24]: 1.3; Ratio IC50 [25]: 7.6; hemolysis at 5 µM [26]: 0%; Ratio IC50 [28]: 1.6; IC50 [29]: 32.8 µM; hemolysis at 240 µM [30]: 1.9% |
| COc1cccc2c1C(=O)c1c(O)c3c(c(O)c1C2=O)C[C@@](O)(C(=O)CO)C[C@@H]3O[C@H]1C[C@H](N)[C@H](O)[C@H](C)O1 [DOXORUBICIN] |  |  |  |  |  |  | 3.2 |  |  |  |  |  |  |  | 3 |  |  |  |  |  | IC50 ([22]; read-out: IC50): 3.3 µM |
| CC(C)C[C@@H]1NC(=O)[C@H](CCCN)NC(=O)[C@H](C(C)C)NC(=O)[C@@H]2CCCN2C(=O)[C@@H](Cc2ccccc2)NC(=O)[C@H](CC(C)C)NC(=O)[C@H](CCCN)NC(=O)[C@H](C(C)C)NC(=O)[C@@H]2CCCN2C(=O)[C@@H](Cc2ccccc2)NC1=O (cyclo(L[dF]PV[Orn]L[dF]PV[Orn])) |  | 100 | 100 |  |  |  |  |  | 0 | 98 |  | 1.5 |  |  |  |  | 24 |  |  |  | hemolysis at 60 µM [23]: 99%; hemolysis at 5 µM [26]: 0.5%; hemolysis at 240 µM [30]: 100% |
| CC/C(=C(\c1ccccc1)c1ccc(OCCN(C)C)cc1)c1ccccc1 [TAMOXIFEN] |  |  |  |  |  |  |  |  |  |  |  |  |  |  | 46.2 |  |  |  |  |  | IC50 [22]: 23.4 µM |
| O=C(O)c1cn(C2CC2)c2cc(N3CCNCC3)c(F)cc2c1=O [CIPROFLOXACIN] | 1.5 µM (≈ 0.497 µg/mL) |  |  |  |  | 0.7 µM (≈ 0.232 µg/mL) |  |  |  |  |  |  |  | 0.7 (≈ 0.232 µg/mL) |  |  |  | 1.5 µM (≈ 0.497 µg/mL) |  |  |  |
| C=CCCCC[P+](Cc1ccccc1O)(c1ccccc1)c1ccccc1 | inactive |  |  | inactive | inactive | inactive |  | inactive |  |  | inactive |  | inactive | 609 |  | inactive |  | inactive | inactive | inactive |  |
| CC(=O)N1CCN(c2ccc(OCC3COC(Cn4ccnc4)(c4ccc(Cl)cc4Cl)O3)cc2)CC1 (configuration not stated) [KETOCONAZOLE] |  |  |  | 16.6 µM (≈ 8.82 µg/mL) |  |  |  |  |  |  | 7.3 µM (≈ 3.88 µg/mL) |  |  |  |  |  |  |  | 7.3 µM (≈ 3.88 µg/mL) | 16.6 µM (≈ 8.82 µg/mL) |  |
| CCCCCC[P+](Cc1ccccc1O)(c1ccccc1)c1ccccc1.[Cl-] | 37.8 µM | 0.4 | 4.8 | inactive | 151 µM | 37.8 µM | 82 | 75.6 µM | 0 | 0.2 | 606 µM | 0 | 37.8 µM | 18.9 | 65.3 | 302 µM | 0.2 | 152 µM | 606 µM | inactive | IC50 [6]: 50 µM; Ratio IC50 [19]: 0.79; IC50 ([22]; read-out: IC50): 83 µM; hemolysis at 60 µM [23]: 0.3%; Ratio IC50 [24]: 0.76; Ratio IC50 [25]: 1.3; hemolysis at 5 µM [26]: 0%; Ratio IC50 [28]: 0.78; IC50 [29]: 86 µM; hemolysis at 240 µM [30]: 2.5% |
| CC1(C)S[C@@H]2[C@H](NC(=O)[C@H](N)c3ccc(O)cc3)C(=O)N2[C@H]1C(=O)O [AMOXICILLIN] |  |  |  |  | 85.6 µM (≈ 31.3 µg/mL) |  |  | 94.4 µM (≈ 34.5 µg/mL) |  |  |  |  | 85.6 µM (≈ 31.3 µg/mL) |  |  | 94.4 µM (≈ 34.5 µg/mL) |  |  |  |  |  |
| CCCCCCCC[P+](Cc1ccccc1O)(c1ccccc1)c1ccccc1.[Cl-] | 8.8 µM | 2.3 | 8.5 | inactive | 35.4 µM | 17.7 µM | 12.5 | 35.4 µM | 0 | 0.4 | 284 µM | 0 | 17.7 µM | 8.8 | 46.3 | 142 µM | 0 | 17.7 µM | 284 µM | inactive | IC50 [6]: 3.7 µM; Ratio IC50 [19]: 3.7; IC50 ([22]; read-out: IC50): 25.7 µM; hemolysis at 60 µM [23]: 0.6%; Ratio IC50 [24]: 3.7; Ratio IC50 [25]: 12.5; hemolysis at 5 µM [26]: 0%; Ratio IC50 [28]: 1.8; IC50 [29]: 12.5 µM; hemolysis at 240 µM [30]: 4.8% |
| CC1COc2c(N3CCN(C)CC3)c(F)cc3c(=O)c(C(=O)O)cn1c23 (configuration not stated) [OFLOXACIN] | 2.4 µM (≈ 0.867 µg/mL) |  |  |  |  | 4.1 µM (≈ 1.48 µg/mL) |  |  |  |  |  |  |  | 2.4 (≈ 0.867 µg/mL) |  |  |  | 8.5 µM (≈ 3.07 µg/mL) |  |  |  |
| CCCCCCCCCCCCCCCC[P+](Cc1ccccc1O)(c1ccccc1)c1ccccc1.[Cl-] | 28.2 µM | 100 | 100 | inactive | 113 µM | 14.1 µM | 25.7 | 28.2 µM | 0.3 | 2.5 | 56.6 µM | 0.9 | 14.1 µM | 3.4 | 45.2 | inactive | 2.1 | 452 µM | 56.6 µM | inactive | IC50 [6]: 3.2 µM; Ratio IC50 [19]: 1.8; IC50 ([22]; read-out: IC50): 12.6 µM; hemolysis at 60 µM [23]: 98%; Ratio IC50 [24]: 3.4; Ratio IC50 [25]: 14.1; hemolysis at 5 µM [26]: 0.3%; Ratio IC50 [28]: 3.6; IC50 [29]: 13.2 µM; hemolysis at 240 µM [30]: 100% |
